Test [1] relates to microglia, macrophages or astrocytes. The test is described as follows: TNF-α, CCL-2 and NO secretion by microglia, macrophages or astrocytes. It counts as cell-based, mouse. The conditions noted are these: microglia, macrophages or astrocytes incubated with 15-HC. The procedure:
FIGS. 4A-D show the results of activation of microglia, macrophages and astrocytes by 15-HC. 4A, a bar graph showing PARP-1 activity in a cell-free system where recombinant PARP-1 was incubated with DNA which as been pretreated with 15-HC or 7-KC. Non-pretreated DNA was used as a negative control and ssb-DNA as a positive control. Data is shown as Mean±SEM. 4B, a pair of bar graphs showing PARP-1 activity measured in microglia, macrophages or astrocytes incubated with 15-HC or 7-KC. The data is shown as the fold of change between vehicle and lipid-treated cells (Mean±SEM). 4C, a pair of bar graphs showing percent inhibition of PARP-1 activity in microglia, macrophages or astrocytes activated with 15-HC or 7-KC […] in the presence of 5-AIQ. 4D, a table showing levels of TNF-α, CCL-2 and NO secretion by 15-HC or 7-KC treated microglia, macrophages or astrocytes (Mean±SEM).
The effect of 15-HC on the activity of cellular PARP-1 was then investigated. […] Thus, 15-HC activates microglia, macrophages and astrocytes through a PARP-1-dependent mechanism.

Test [2] deals with TLR signaling proteins (TAK1, IRAK, Akt, p38-MAPK, PyK2, PKC, PI3K, ERK1/2). Put plainly: Reverse protein arrays / western blot of signaling after 15-HC. It counts as cell-based, mouse. The conditions noted are these: microglia or macrophage cells, 1 μg/ml 15-HC. The protocol: 5A, a bar graph showing the time course of microglial PARP-1 activation by 15-oxysterols or 7-KC. PARP-1 activity is shown as Mean±SEM. 5B, a set of eight bar graphs showing signaling pathways activated by 15-HC. Microglial cells were stimulated with 15-HC and lysed at 1, 5, and 15 minutes. Signal transduction arrays were made with the lysates and probed with phospho-specific antibodies. 15a-HC increases the phosphorylation of TAK1 (top right), IRAK (top left), Akt (second row, left), p38 MAPK (second row, right), Pyk2 (third row, left), PKC (third row, right), PI3K (bottom row, left), and Erk1/2 (bottom row, right). (Mean±SEM) 5C, a bar graph showing activation of microglial PARP-1 by 15-HC in the presence of kinase inhibitors (Mean±SEM). […]
FIG. 8 is a set of eight pairs of bolts and bar graphs showing blockade of 15-HC triggered signaling pathways with blocking antibodies to TLR2. Microglial cells were incubated with […] of TLR2 blocking antibody or isotype control 45 minutes prior the addition of 15-HC to the medium and signal transduction events were analyzed by western blot. […]
The C8B4 microglial cell line, C8-D1A astrocytes and Raw 264.7 macrophages were purchased from ATCC (Manassas, Va., USA). […] Slides were then probed, processed and analyzed as previously described (Chan et al., Nat Med 10, 1390-1396 (2004)).

In the next test the test system is human monocytes. Put plainly: TNFa and CCL2 production by human monocytes. It counts as cell-based. The conditions noted are these: 1 ug/ml 15-HC. The protocol: FIGS. 10A and 10B are bar graphs showing TLR2 mediated activation of PARP-1 by 15-HC. PARP-1 enzymatic activity (10A) and TNFalpha and CCL2 (10B) of PBMCs incubated with 15-HC alone, or in combination with AIQ, blocking antibodies to TLR2 or IC control.
To investigate whether the TLR2/PARP-1 axis is functional in human we activated PBMCs from healthy controls with 15-HC, in the presence or not of PARP-1 or TLR2 inhibitors. […] Thus, 15-HC activates PARP-1 in human monocytes by a TLR2 dependent pathway that results in the release of the pro-inflammatory mediators TNFa and CCL2.

Consider 15-hydroxycholestene [15-HC], for which the “secretion of NO, CCL-2 and TNF-α” value in test [1] is “resulted in the secretion”. Also, the “phosphorylation of TAK1, IRAK, Akt, p38-MAPK, PyK2, PKC, PI3K and ERK1/2” value in test [2] is given as “resulted in the phosphorylation”. For the same substance, the “production of TNFa and CCL2” value in the test with human monocytes is “resulted in production”.

The values above are taken from patent US20140343095A1, “Methods of Diagnosing and Treating Multiple Sclerosis” (The Brigham and Women's Hospital, Inc., priority 2009, published 2014).
